Tests used:
tubulin = experiment: In vitro tubulin polymerization (fluorescence); assay type: biochemical; settings: relative to 0.05% DMSO control
Description: To obtain further support for the proposed antitubulin mechanism of action for our heterocycles, we assessed the effect of pyranoquinolones on in vitro tubulin polymerization. In this assay microtubule formation is monitored by the increase in fluorescence intensity of the reaction mixture.
FIG. 4 illustrates the effect of our compounds on in vitro tubulin polymerization.

Jurkat cells [1] = experiment: DNA laddering assay; assay type: cell-based, human; settings: 36 h, 1.5% agarose gel
Protocol: Since endonuclease-mediated cleavage of nuclear DNA resulting in formation of oligonucleosomal DNA fragments (180-200 base pairs long) is a hallmark of apoptosis in many cell types, apoptosis was further investigated with the DNA laddering assay (FIG. 2). Jurkat cells were treated with DMSO (lane A), analogues 40 and 41 (lanes B and C), and paclitaxel (lane D) for 36 h. After that the cellular DNA was isolated and electrophoresed in a 1.5% agarose gel. […] No laddering was observed when the cells were treated with DMSO control.
FIG. 2 illustrates DNA laddering in Jurkat cells after 36 h of treatment. (A) DMSO control, (B) 40 at 1.5 μM, (C) 41 at 1.5 μM, (D) paclitaxel at 0.4 μM, and (E) Molecular weight marker (KB).

MCF-7 = experiment: MTT cell viability assay, MCF-7 cells; assay type: cell-based; settings: Homo sapiens, MCF7, 48 h treatment, ± SD, two experiments, 8 replicates
HeLa = experiment: MTT cell viability assay, HeLa cells; assay type: cell-based; settings: Homo sapiens, 48 h treatment, ± SD, two experiments, 8 replicates
Jurkat cells [2] = experiment: Light microscopy of morphological changes; assay type: cell-based, human; settings: 1 μM, 2 h
Protocol: Morphological changes of cells treated with potent analogues can be visually observed with light microscopy (FIG. 3).
FIG. 3 illustrates light microscopy pictures. Treatment of Jurkat cells with 40 (C) and 41 (D) for 2 hours induces formation of finger-like extensions (black arrows) and shriveling (white arrows). 0.1% DMSO (A) and a known anticancer agent (B) were used as controls. All compounds are used at 1 μM. The scale bar indicates 40 μm.

Jurkat cells [3] = experiment: Flow cytometric cell cycle analysis (Vybrant Orange staining); assay type: cell-based, human; settings: for cell cycle arrest: Jurkat cell line, flow cytometric cell cycle analysis; for % relative DNA content G0/G1 / % relative DNA content G2/M / % relative DNA content S: Jurkat, 1 μM, 24 h, ± SD
Description: Our libraries of compounds exert their antiproliferative properties through inhibition of tubulin dynamics, thereby inducing mitotic arrest and initiating apoptosis in cancer cells. […] This effect is characteristic of antimitotic agents disrupting microtubule assembly.

Jurkat cells [4] = experiment: Flow cytometric annexin-V/propidium iodide apoptosis assay; assay type: cell-based, human; settings: 5 μM, 36 h
Protocol: Since many clinically used anticancer agents induce apoptosis in cancer cells, we tested the pyranopyridone analogues for their ability to induce apoptosis in Jurkat (model for human T-cell leukemia) cells using the flow cytometric annexin-V/propidium iodide assay (FIG. 1).
FIG. 1 illustrates induction of apoptosis in Jurkat cells treated for 36 h with DMSO control, colchicine (5 μM) and selected pyridone library analogues (5 μM) in the flow cytometric annexin-V/propidium iodide assay. Error bars represent data

Row | GI50 (MCF-7) [µM] | GI50 (HeLa) [µM] | Compound | also measured
1 |  |  | CC(=O)O[C@H]1C(=O)[C@@]2(C)[C@H]([C@H](OC(=O)c3ccccc3)[C@]3(O)C[C@H](OC(=O)[C@H](O)[C@@H](NC(=O)c4ccccc4)c4ccccc4)C(C)=C1C3(C)C)[C@]1(OC(C)=O)CO[C@@H]1C[C@@H]2O [paclitaxel, reference compound] | effect on in vitro tubulin polymerization (tubulin; 3 μM): promotes microtubule formation; DNA laddering in Jurkat cells (Jurkat cells [1]; 0.4 μM): characteristic ladder pattern was obtained
2 | 1 ± 0.3 | 0.24 ± 0.02 | COc1cc(C2C(C#N)=C(N)Oc3c2c(=O)n(C)c2ccccc32)cc(OC)c1OC (stereo not shown) [Compound 22, 2-Amino-6-methyl-5-oxo-4-(3,4,5-trimethoxyphenyl)-5,6-dihydro-4H-pyrano[3,2-c]quinoline-3-carbonitrile] | 
3 | 0.39 ± 0.16 | 0.047 ± 0.01 | COc1cc(C2C(C#N)=C(N)Oc3c2c(=O)n(C)c2ccccc32)cc(Br)c1O (stereo not shown) [Compound 40, 2-Amino-4-(3-bromo-4-hydroxy-5-methoxyphenyl)-6-methyl-5-oxo-5,6-dihydro-4H-pyrano[3,2-c]quinoline-3-carbonitrile] | effect on in vitro tubulin polymerization (tubulin; 25 μM): completely suppress tubulin polymerization; morphological (phenotypic) changes of Jurkat cells (Jurkat cells [2]): formation of finger-like extensions and shriveling; cell cycle arrest (Jurkat cells [3]): pronounced cell cycle arrest in the G2/M phase; % relative DNA content G0/G1 (Jurkat cells [3]): 27 ± 3%; % relative DNA content G2/M (Jurkat cells [3]): 47 ± 3%; % relative DNA content S (Jurkat cells [3]): 22 ± 2%; DNA laddering in Jurkat cells (Jurkat cells [1]; 1.5 μM): characteristic ladder pattern was obtained
4 | 0.025 ± 0.06 | 0.18 ± 0.02 | COc1cc(C2C(C#N)=C(N)Oc3c2c(=O)n(C)c2ccccc32)cc(Br)c1OC(C)=O (stereo not shown) [Compound 4, 4-(2-Amino-3-cyano-6-methyl-5-oxo-5,6-dihydro-4H-pyrano[3,2-c]quinolin-4-yl)-2-bromo-6-methoxyphenyl acetate] | 
5 | 0.5 ± 0.1 | 0.41 ± 0.04 | COc1ccc(C2C(C#N)=C(N)Oc3c2c(=O)n(C)c2ccccc32)cc1Br (stereo not shown) [Compound 43, 2-Amino-4-(3-bromo-4-methoxyphenyl)-6-methyl-5-oxo-5,6-dihydro-4H-pyrano[3,2-c]quinoline-3-carbonitrile] | 
6 |  | > 100 | Cc1cc2c(c(=O)n1C)C(c1ccc(C(C)C)cc1)C(C#N)=C(N)O2 (stereo not shown) [Compound 17, 2-Amino-4-(4-isopropylphenyl)-6,7-dimethyl-5-oxo-5,6-dihydro-4H-pyrano[3,2-c]pyridine-3-carbonitrile] | induction of apoptosis in Jurkat cells (Jurkat cells [4]): do not induce apoptosis
7 |  | 3.5 ± 1.3 | COc1cc(C2C(C#N)=C(N)Oc3cc(C)n(C)c(=O)c32)cc(Br)c1OC(C)=O (stereo not shown) [Compound 12, 4-(2-Amino-3-cyano-6,7-dimethyl-5-oxo-5,6-dihydro-4H-pyrano[3,2-c]pyridin-4-yl)-2-bromo-6-methoxyphenyl acetate] | 
8 | 0.43 ± 0.01 | 0.27 ± 0.02 | Cn1c(=O)c2c(c3ccccc31)OC(N)=C(C#N)C2c1cc(Br)c(O)c(Br)c1 (stereo not shown) [Compound 39, 2-Amino-4-(3,5-dibromo-4-hydroxyphenyl)-6-methyl-5-oxo-5,6-dihydro-4H-pyrano[3,2-c]quinoline-3-carbonitrile] | 
9 |  | 0.33 ± 0.06 | Cc1cc2c(c(=O)n1C)C(c1ccc(N(C)C)c(Br)c1)C(C#N)=C(N)O2 (stereo not shown) [Compound 8, 2-Amino-4-[3-bromo-4-(dimethylamino)phenyl]-6,7-dimethyl-5-oxo-5,6-dihydro-4H-pyrano[3,2-c]pyridine-3-carbonitrile] | 
10 |  | 6.5 ± 1.3 | Cc1cc2c(c(=O)n1C)C(c1cccc(Br)c1)C(C#N)=C(N)O2 (stereo not shown) [Compound 14, 2-Amino-4-(3-bromophenyl)-6,7-dimethyl-5-oxo-5,6-dihydro-4H-pyrano[3,2-c]pyridine-3-carbonitrile] | 
11 |  | 2.7 ± 1.1 | COc1cc(C2C(C#N)=C(N)Oc3cc(C)n(C)c(=O)c32)cc(Br)c1O (stereo not shown) [Compound 11, 2-Amino-4-(3-bromo-4-hydroxy-5-methoxyphenyl)-6,7-dimethyl-5-oxo-5,6-dihydro-4H-pyrano[3,2-c]pyridine-3-carbonitrile] | 
12 | 0.075 ± 0.007 | 0.077 ± 0.006 | Cn1c(=O)c2c(c3ccccc31)OC(N)=C(C#N)C2c1cc(Br)cc(Br)c1 (stereo not shown) [Compound 42, 2-Amino-4-(3,5-dibromophenyl)-6-methyl-5-oxo-5,6-dihydro-4H-pyrano[3,2-c]quinoline-3-carbonitrile] | 
13 | 0.81 ± 0.08 | 0.27 ± 0.03 | Cn1c(=O)c2c(c3ccccc31)OC(N)=C(C#N)C2c1ccc(F)c(Br)c1 (stereo not shown) [Compound 38, 2-Amino-4-(3-bromo-4-fluorophenyl)-6-methyl-5-oxo-5,6-dihydro-4H-pyrano[3,2-c]quinoline-3-carbonitrile] | 
14 | 0.015 ± 0.008 | 0.013 ± 0.003 | Cn1c(=O)c2c(c3ccccc31)OC(N)=C(C#N)C2c1cncc(Br)c1 (stereo not shown) [Compound 3, 2-Amino-4-(5-bromo-3-pyridinyl)-6-methyl-5-oxo-5,6-dihydro-4H-pyrano[3,2-c]quinoline-3-carbonitrile] | 
15 |  | 1.1 ± 0.8 | CCOc1c(Br)cc(C2C(C#N)=C(N)Oc3cc(C)n(C)c(=O)c32)cc1OC (stereo not shown) [Compound 10, 2-Amino-4-(3-bromo-4-ethoxy-5-methoxyphenyl)-6,7-dimethyl-5-oxo-5,6-dihydro-4H-pyrano[3,2-c]pyridine-3-carbonitrile] | 
16 | 0.38 ± 0.03 | 0.014 ± 0.003 | COc1cc(C2C(C#N)=C(N)Oc3c2c(=O)n(C)c2ccccc32)cc(Br)c1OC (stereo not shown) [Compound 41, 2-Amino-4-(3-bromo-4,5-dimethoxyphenyl)-6-methyl-5-oxo-5,6-dihydro-4H-pyrano[3,2-c]quinoline-3-carbonitrile] | effect on in vitro tubulin polymerization (tubulin; 25 μM): completely suppress tubulin polymerization; morphological (phenotypic) changes of Jurkat cells (Jurkat cells [2]): formation of finger-like extensions and shriveling; cell cycle arrest (Jurkat cells [3]): pronounced cell cycle arrest in the G2/M phase; % relative DNA content G0/G1 (Jurkat cells [3]): 20 ± 2%; % relative DNA content G2/M (Jurkat cells [3]): 49 ± 2%; % relative DNA content S (Jurkat cells [3]): 28 ± 2%; DNA laddering in Jurkat cells (Jurkat cells [1]; 1.5 μM): characteristic ladder pattern was obtained
17 |  |  | COc1cc([C@@H]2c3cc4c(cc3[C@H](O)[C@H]3COC(=O)[C@H]23)OCO4)cc(OC)c1OC [podophyllotoxin, reference compound] | effect on in vitro tubulin polymerization (tubulin; 25 μM): completely suppress tubulin polymerization
18 |  | 6.4 ± 1.1 | Cc1cc2c(c(=O)n1C)C(c1ccc(F)c(Br)c1)C(C#N)=C(N)O2 (stereo not shown) [Compound 13, 2-Amino-4-(3-bromo-4-fluorophenyl)-6,7-dimethyl-5-oxo-5,6-dihydro-4H-pyrano[3,2-c]pyridine-3-carbonitrile] | 
19 |  | 0.58 ± 0.14 | COc1cc(C2C(C#N)=C(N)Oc3cc(C)n(C)c(=O)c32)cc(Br)c1OC (stereo not shown) [Compound 9, 2-Amino-4-(3-bromo-4,5-dimethoxyphenyl)-6,7-dimethyl-5-oxo-5,6-dihydro-4H-pyrano[3,2-c]pyridine-3-carbonitrile] | 
20 |  | 22.7 ± 6.4 | COc1ccc(CCn2c(C)cc3c(c2=O)C(c2cc(OC)c(OC)c(OC)c2)C(C#N)=C(N)O3)cc1OC (stereo not shown) [Compound 20, 2-Amino-6-(3,4-dimethoxyphenethyl)-7-methyl-5-oxo-4-(3,4,5-trimethoxyphenyl)-5,6-dihydro-4H-pyrano[3,2-c]pyridine-3-carbonitrile] | induction of apoptosis in Jurkat cells (Jurkat cells [4]): do not induce apoptosis
21 | 0.71 ± 0.12 | 0.63 ± 0.02 | COc1cc(C2C(C#N)=C(N)Oc3c2c(=O)n(C)c2ccccc32)cc([N+](=O)[O-])c1O (stereo not shown) [Compound 25, 2-Amino-4-(4-hydroxy-3-methoxy-5-nitrophenyl)-6-methyl-5-oxo-5,6-dihydro-4H-pyrano[3,2-c]quinoline-3-carbonitrile] | 
22 |  | 18.3 ± 2.9 | Cc1cc2c(c(=O)n1C)C(c1ccc(Cl)c(Cl)c1)C(C#N)=C(N)O2 (stereo not shown) [Compound 15, 2-Amino-4-(3,4-dichlorophenyl)-6,7-dimethyl-5-oxo-5,6-dihydro-4H-pyrano[3,2-c]pyridine-3-carbonitrile] | induction of apoptosis in Jurkat cells (Jurkat cells [4]): do not induce apoptosis
23 | 0.003 ± 0.001 | 0.74 ± 0.03 | Cn1c(=O)c2c(c3ccccc31)OC(N)=C(C#N)C2c1cccc(Br)c1 (stereo not shown) [Compound 37, 2-Amino-4-(3-bromophenyl)-6-methyl-5-oxo-5,6-dihydro-4H-pyrano[3,2-c]quinoline-3-carbonitrile] | 

Reference: US8349864B2, “Pyrano [3,2-C] pyridones and related heterocyclic compounds as pharmaceutical agents for treating disorders responsive to apoptosis, antiproliferation or vascular disruption, and the use thereof” (New Mexico Technical Research Foundation, priority 2009, dated 2013)
